Data taken from patent publication US3950351A, “New derivatives of 2-benzamido-5-nitro thiazoles” (S.P.R.L. Phavic, priority 1973, dated 1976).

What was measured:
[1] = system: Hymenolepis nana; assay: Test for anthelminthics, cestodes (R. CAVIER; R. CAVIER and M. J. NOTTEGHEM); assay type: in vivo; design: Hymenolepis nana: (4) percentage of activity: concentration or dose not given beside the values; details: Table II; 10 subjects
Source text: (§1) Biological tests have been performed with a great number of compounds of formula I, using the following techniques: 1)- Test for amoebicidal activity described by R. CAVIER, Ann. pharm. franc. 1960, 18, pages 583-589 and by R. CAVIER and J. CENAC, Bull. Soc. Path. exot. 1972, 65, pages 399-404. 2) - Test for trichomonacidal activity described by R. Cavier and P. BUOT, Ann. Pharm. franc., 1964, 22, pages 211-216 and by R. CAVIER and J. CENAC, Semaine des Hopitaux, 1972, 48, pages 391-394. 3)- Tests for anthelminthics described for nematodes (such as Syphacia obvelata) by R. CAVIER, Bull. Soc. Path. exot. 1962, 55, pages 412-417, and for cestodes (such as Hymenolepis nana), by R. CAVIER, Ann. pharm. franc. 1956, 14, pages 545-552 and by R. CAVIER and M. J. NOTTEGHEM, Ann. Pharm. franc., 1968, 28, pages 603-606.

[2] = Acute toxicity in mice; details: mouse, in vivo
Source text: Toxicity investigations have shown that the compounds of formula I have a very low acute toxicity both on oral administration and on intraperitoneal administration to mice.

[3] = system: Biomphalaria glabrata; assay: Molluscicidal activity test; assay type: in vivo; details: 24 h exposure at 26°C, observed again after 24 h, 10, 1 and 0.1 ppm tested, read-out: dose at which active against Biomphalaria glabrata
Experimental: For determining the molluscicidal activity, the following test is used:
Two to four weeks old molluscs are used. Five molluscs having the same size are put in the same container and covered with a testing solution at a temperature of 26°C during 24 hours. After rinsing, the animals are again observed after 24 hours. The total duration of this test therefore is 48 hours.
Testing solutions containing respectively 10, 1 and 0.1 parts per million of the compounds to be tested in water having a hardness of 10° (hydrotimetric) are used.
The sensitivity of the mollusc strain is standardized with known reference molluscicides such as Niclosamide (Registered Trademark).

[4] = system: Syphacia obvelata; assay: Test for anthelminthics, nematodes (R. CAVIER); assay type: in vivo; design: Syphacia: (4) percentage of activity: concentration or dose not given beside the values; details: Table II; 10 subjects
Source text: as §1

[5] = system: Hymenolepis nana; assay: Tests on Hymenolepis nana in mice, anthelminthic activity, single dose (technique of R. CAVIER); assay type: in vivo; design: Mortality: unit not given here
Source text: Tests on Hymenolepis nana in mice have also been performed in order to determine the anthelminthic activity of various cmpounds of formula I, according to the technique of R. CAVIER. […] Four hours later, the animals have been purged by means of sodium sulfate.

| SMILES | Hymenolepis nana: (2) number of dead subjects [1] | Hymenolepis nana: (3) number of subjects from which the parasite has been eradicated [1] | Hymenolepis nana: (4) percentage of activity [1] [%] | minimal effective concentration [3] [µg/mL] | Syphacia: (2) number of dead subjects [4] | Syphacia: (3) number of subjects from which the parasite has been eradicated [4] | Syphacia: (4) percentage of activity [4] [%] | also measured |
| --- | --- | --- | --- | --- | --- | --- | --- | --- |
| CC(=O)Oc1ccccc1C(=O)Nc1ncc([N+](=O)[O-])s1 [PH 5776] | 0 | 10 | 100 | 1 | 0 | 6 | 60 | LD50 ([2]; ip, intraperitoneal administration): > 95 mg/kg; LD50 ([2]; oral administration): > 4000 mg/kg; Mice from which parasite has been eradicated, number ([5]; 25 mg/kg): 20; Mice from which parasite has been eradicated, percentage ([5]; 25 mg/kg): 100%; Mortality ([5]; 25 mg/kg): 0; Mice from which parasite has been eradicated, number ([5]; 50 mg/kg): 30; Mice from which parasite has been eradicated, percentage ([5]; 50 mg/kg): 100%; Mortality ([5]; 50 mg/kg): 0; Mice from which parasite has been eradicated, number ([5]; 100 mg/kg): 10; Mice from which parasite has been eradicated, percentage ([5]; 100 mg/kg): 100%; Mortality ([5]; 100 mg/kg): 0; Mice from which parasite has been eradicated, number ([5]; 200 mg/kg): 10; Mice from which parasite has been eradicated, percentage ([5]; 200 mg/kg): 100%; Mortality ([5]; 200 mg/kg): 0 |
| COc1cc(C(=O)Nc2ncc([N+](=O)[O-])s2)ccc1OC(C)=O [PH 6196] | 0 | 0 | 0 |  | 0 | 0 | 0 |  |
| CC(=O)Oc1ccc(C(=O)Nc2ncc([N+](=O)[O-])s2)c(OC(C)=O)c1 [PH 6058] | 0 | 2 | 20 |  | 0 | 2 | 20 |  |
| CC(=O)Oc1ccc(C(=O)Nc2ncc([N+](=O)[O-])s2)cc1OC(C)=O [PH 6162] | 0 | 1 | 10 |  | 0 | 2 | 20 |  |
| COc1cc(C(=O)Nc2ncc([N+](=O)[O-])s2)cc(OC)c1OC(C)=O [PH 6059] | 0 | 1 | 10 | 10 | 0 | 2 | 20 |  |
| CC(=O)Oc1ccc(Br)cc1C(=O)Nc1ncc([N+](=O)[O-])s1 [PH 6103] | 0 | 4 | 40 | 1 | 0 | 2 | 20 |  |
| CC(=O)Oc1ccc(Cl)cc1C(=O)Nc1ncc([N+](=O)[O-])s1 [PH 6057] | 0 | 7 | 70 | 1 | 0 | 2 | 20 |  |
| CC(=O)Oc1ccc(OC(C)=O)c(C(=O)Nc2ncc([N+](=O)[O-])s2)c1 [PH 6056] | 0 | 6 | 60 |  | 0 | 1 | 10 |  |
| CC(=O)Oc1cccc(C(=O)Nc2ncc([N+](=O)[O-])s2)c1 [PH 6045] | 0 | 4 | 40 | 10 | 0 | 0 | 0 |  |
| CC(=O)Oc1cc(C(=O)Nc2ncc([N+](=O)[O-])s2)cc(OC(C)=O)c1OC(C)=O [PH 6177] | 0 | 0 | 0 |  | 0 | 0 | 0 |  |
| CCC(=O)Oc1ccccc1C(=O)Nc1ncc([N+](=O)[O-])s1 [PH 6049] | 0 | 10 | 100 | 1 | 0 | 2 | 20 | Mice from which parasite has been eradicated, number ([5]; 25 mg/kg): 8; Mice from which parasite has been eradicated, percentage ([5]; 25 mg/kg): 40%; Mortality ([5]; 25 mg/kg): 0; Mice from which parasite has been eradicated, number ([5]; 50 mg/kg): 14; Mice from which parasite has been eradicated, percentage ([5]; 50 mg/kg): 70%; Mortality ([5]; 50 mg/kg): 0; Mice from which parasite has been eradicated, number ([5]; 100 mg/kg): 18; Mice from which parasite has been eradicated, percentage ([5]; 100 mg/kg): 90%; Mortality ([5]; 100 mg/kg): 0; Mice from which parasite has been eradicated, number ([5]; 200 mg/kg): 20; Mice from which parasite has been eradicated, percentage ([5]; 200 mg/kg): 100%; Mortality ([5]; 200 mg/kg): 0 |
| CC(=O)Oc1cc(OC(C)=O)cc(C(=O)Nc2ncc([N+](=O)[O-])s2)c1 [PH 6161] | 0 | 0 | 0 |  | 0 | 7 | 70 |  |
| CC(=O)Oc1cccc(C(=O)Nc2ncc([N+](=O)[O-])s2)c1OC(C)=O [PH 6239] | 0 | 2 | 20 | 10 | 0 | 1 | 10 |  |
| CC(=O)Oc1ccc(C(=O)Nc2ncc([N+](=O)[O-])s2)cc1 [PH 6046] | 0 | 3 | 30 |  | 0 | 2 | 20 |  |
